In patent publication US20240116985A1, “STAPLED PEPTIDES AND METHODS THEREOF” (priority 2020, published 2024):
≈ marks a conversion by molar mass, not a printed value. Read-outs that look alike come from different tables or passages of the source.

Key:
Solubility in PBS = type: physicochemical
Procedure, shortened: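 The PBS solution was ultracentrifuged and the supernatant analyzed by HPLC. Its peak area was divided by that of a 50 μM peptide DMSO reference injection and multiplied by 50 uM to give solubility.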

[1] = biological target: T1, full-length beta-Catenin (Uniprot ID P35222) (Homo sapiens, UniProt P35222); assay: Fluorescence polarization IC50 (beta-catenin / 5FAM-TCF4 10-53 competition); type: binding
T1 construct: 10 nM full-length beta-Catenin (Uniprot ID P35222)
T1 sequence (P35222 1-781): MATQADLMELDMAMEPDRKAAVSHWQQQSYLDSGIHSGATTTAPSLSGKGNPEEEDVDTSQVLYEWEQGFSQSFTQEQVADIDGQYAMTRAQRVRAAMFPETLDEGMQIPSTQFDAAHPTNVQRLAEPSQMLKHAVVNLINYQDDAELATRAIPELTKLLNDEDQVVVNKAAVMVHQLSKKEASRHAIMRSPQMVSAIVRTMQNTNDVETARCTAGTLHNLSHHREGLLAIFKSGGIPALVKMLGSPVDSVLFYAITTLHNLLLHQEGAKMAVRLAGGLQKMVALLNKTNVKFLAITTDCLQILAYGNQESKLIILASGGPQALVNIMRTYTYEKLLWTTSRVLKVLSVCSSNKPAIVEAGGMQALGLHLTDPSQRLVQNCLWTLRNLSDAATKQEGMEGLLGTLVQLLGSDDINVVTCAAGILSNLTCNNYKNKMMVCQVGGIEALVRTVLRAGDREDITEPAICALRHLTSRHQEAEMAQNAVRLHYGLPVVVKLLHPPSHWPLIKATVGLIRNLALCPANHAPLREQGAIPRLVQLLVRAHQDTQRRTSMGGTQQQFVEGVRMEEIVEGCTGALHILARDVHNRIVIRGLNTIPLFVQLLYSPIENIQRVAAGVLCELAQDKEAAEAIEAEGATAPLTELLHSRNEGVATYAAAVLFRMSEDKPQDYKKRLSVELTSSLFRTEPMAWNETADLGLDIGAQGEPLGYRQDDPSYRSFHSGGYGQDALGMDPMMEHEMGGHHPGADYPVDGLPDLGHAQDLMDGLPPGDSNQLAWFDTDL

CHI Log D procedure = type: physicochemical; settings: for chromatographic logD: pH 7.4, CHI Log D; for CHI Log D: pH 7.4
[2] = fluorescence polarization, read-out: beta-Catenin FP IC50
[3] = fluorescence polarization, beta-catenin, read-out: FP EC50

SMILES	Solubility (Solubility in PBS; Solubility (uM))	IC50 [1, 2]	chromatographic logD (CHI Log D procedure)	Solubility (Solubility in PBS)	IC50 [1, 3]	IC50 ([1]; read-out: beta-Catenin FP IC50)	CHI Log D (CHI Log D procedure)	IC50 ([1]; read-out: FP EC50)	IC50 ([1]; Table E2-1, read-out: beta-Catenin FP IC50)
CC(=O)N1CCC[C@]12CC=CCCCC1(CCCC=CCCCCCC[C@@](C)(C(=O)N[C@@H](Cc3ccccc3)C(=O)N[C@@H](Cc3csc4ccccc34)C(=O)N[C@@H](Cc3c[nH]cn3)C(N)=O)NC(=O)[C@H](CCC(N)=O)NC(=O)[C@H](Cc3ccccc3)NC(=O)[C@H](C)NC(=O)[C@H](C)NC(=O)[C@H](CN(CC(=O)O)CC(F)(F)F)NC(=O)[C@H](CC(=O)O)NC1=O)NC(=O)[C@H](C)NC(=O)[C@H](CC(=O)O)NC2=O (stereo partly drawn) [I-499, Ac-PL3-Asp-Ala-B5-Asp-TfeGA-Ala-Ala-Phe-Gln-S8-Phe-BztA-His-NH2]	48 µM (≈ 93.5 µg/mL)	123 nM	2.17	–	–	–	–	–	–
CCN(CC(=O)O)C[C@@H]1NC(=O)[C@H](CC(=O)O)NC(=O)C2(CCCC=CCCCOC(=O)N3CC[C@@](C(=O)N[C@@H](Cc4ccsc4)C(=O)N[C@@H](Cc4csc5ccccc45)C(=O)N[C@@H](CCC(N)=O)C(N)=O)(C3)NC(=O)[C@H](CO)NC(=O)[C@H](Cc3ccccc3)NC(=O)[C@H](C)NC(=O)[C@H](C)NC1=O)CCCC=CC[C@]1(CCCN1C(C)=O)C(=O)N[C@@H](CC(=O)O)C(=O)N[C@@H](CC(C)(C)C)C(=O)N2 (stereo partly drawn) [I-967, Ac-PL3-Asp-Npg-B5-Asp-EtGA-Ala-Ala-Phe-Ser-PyrS2-3Thi-BztA-Gln-NH2]	–	–	–	45 µM (≈ 87.7 µg/mL)	1740 nM	1740 nM	1.884	–	–
CC(=O)N1CCC[C@]12CC=CCCCC1(CCCC=CCCCOC(=O)N3CC[C@@](C(=O)N[C@@H](Cc4ccsc4)C(=O)N[C@@H](Cc4csc5ccccc45)C(=O)N[C@@H](C(N)=O)[C@H](C)O)(C3)NC(=O)[C@H](CC(N)=O)NC(=O)[C@H](Cc3ccccc3)NC(=O)[C@H](C)NC(=O)[C@H](C)NC(=O)[C@H](CN(CC(=O)O)CC(F)(F)F)NC(=O)[C@H](CC(=O)O)NC1=O)NC(=O)[C@H](CC(C)(C)C)NC(=O)[C@H](CC(=O)O)NC2=O (stereo partly drawn) [I-949, Ac-PL3-Asp-Npg-B5-Asp-TfeGA-Ala-Ala-Phe-Asn-PyrS2-3Thi-BztA-dThr-NH2]	–	–	–	49 µM (≈ 98.1 µg/mL)	2260 nM	2260 nM	2.086	–	–
CC(=O)N1CCC[C@]12CC=CCCCC1(CCCC=CCCCOC(=O)N3CC[C@@](C(=O)N[C@@H](Cc4ccsc4)C(=O)N[C@@H](Cc4csc5ccccc45)C(=O)N[C@@H](CO)C(N)=O)(C3)NC(=O)[C@H](CC(C)C)NC(=O)[C@H](Cc3ccccc3)NC(=O)[C@H](C)NC(=O)[C@H](C)NC(=O)[C@H](CN(CC(=O)O)CC(F)(F)F)NC(=O)[C@H](CC(=O)O)NC1=O)NC(=O)[C@H](CC(C)(C)C)NC(=O)[C@H](CC(=O)O)NC2=O (stereo partly drawn) [I-960, Ac-PL3-Asp-Npg-B5-Asp-TfeGA-Ala-Ala-Phe-Leu-PyrS2-3Thi-BztA-Ser-NH2]	–	–	–	13 µM (≈ 25.8 µg/mL)	336 nM	336 nM	2.06	–	–
CC[C@@H](C)[C@@H]1NC(=O)[C@H](CC(=O)O)NC(=O)[C@]2(CC=CCCCC3(CCCC=CCCCCCC[C@@](C)(C(=O)N[C@@H](Cc4ccccc4)C(=O)N[C@@H](Cc4csc5ccccc45)C(=O)N[C@@H](CCC(N)=O)C(N)=O)NC(=O)[C@H](CC(N)=O)NC(=O)[C@H](Cc4ccccc4)NC(=O)[C@H](C)NC(=O)[C@H](C)NC(=O)[C@H](CCC(=O)O)NC(=O)[C@H](CC(=O)O)NC3=O)NC1=O)CCCN2C(C)=O (stereo partly drawn) [I-476, Ac-PL3-Asp-aIle-B5-Asp-Glu-Ala-Ala-Phe-Asn-S8-Phe-BztA-Gln-NH2]	–	48 nM	–	49 µM (≈ 91.6 µg/mL)	–	–	2.317	48 nM	–
CC(=O)N1CCC[C@]12CC=CCCCC1(CCCC=CCCCOC(=O)N3CC[C@@](C(=O)N[C@@H](Cc4ccsc4)C(=O)N[C@@H](Cc4csc5ccccc45)C(=O)N[C@@H](CO)C(N)=O)(C3)NC(=O)[C@H](Cc3ccccc3)NC(=O)[C@H](Cc3ccccc3)NC(=O)[C@H](C)NC(=O)[C@H](C)NC(=O)[C@H](Cc3cccc(C(=O)O)c3)NC(=O)[C@H](CC(=O)O)NC1=O)NC(=O)[C@H](CC(C)(C)C)NC(=O)[C@H](CC(=O)O)NC2=O (stereo partly drawn) [I-983, Ac-PL3-Asp-Npg-B5-Asp-3COOHF-Ala-Ala-Phe-Phe-PyrS2-3Thi-BztA-Ser-NH2]	–	–	–	10 µM (≈ 19.9 µg/mL)	118 nM	118 nM	1.919	–	–
CC[C@H](C)[C@@H]1NC(=O)[C@H](CC(=O)O)NC(=O)[C@]2(CC=CCCCC3(CCCC=CCCCCCC[C@@](C)(C(=O)N[C@@H](Cc4ccccc4)C(=O)N[C@@H](Cc4csc5ccccc45)C(=O)N[C@@H](CCC(N)=O)C(N)=O)NC(=O)[C@H](CC(N)=O)NC(=O)[C@H](Cc4ccccc4)NC(=O)[C@H](C)NC(=O)[C@H](C)NC(=O)[C@H](CN(CC(=O)O)CC(F)(F)F)NC(=O)[C@H](CC(=O)O)NC3=O)NC1=O)CCCN2C(C)=O (stereo partly drawn) [I-699, Ac-PL3-Asp-Ile-B5-Asp-TfeGA-Ala-Ala-Phe-Asn-S8-Phe-BztA-Gln-NH2]	–	43 nM	2.63	50 µM (≈ 98.3 µg/mL)	–	–	–	–	–
CC(=O)N1CCC[C@]12CC=CCCCC1(CCCC=CCCCOC(=O)N3CC[C@@](C(=O)N[C@@H](Cc4ccccc4Cl)C(=O)N[C@@H](Cc4csc5ccccc45)C(=O)N[C@H](C(N)=O)[C@@H](C)O)(C3)NC(=O)[C@H](CC(C)C)NC(=O)[C@H](Cc3ccccc3)NC(=O)[C@H](C)NC(=O)[C@H](C)NC(=O)[C@H](CCC(=O)O)NC(=O)[C@H](CC(=O)O)NC1=O)NC(=O)[C@H](CC(C)(C)C)NC(=O)[C@H](CC(=O)O)NC2=O (stereo partly drawn) [I-1070, Ac-PL3-Asp-Npg-B5-Asp-Glu-Ala-Ala-Phe-Leu-PyrS2-2C1F-BztA-Thr-NH2]	–	–	–	10 µM (≈ 19.3 µg/mL)	1020 nM	1020 nM	2.135	–	–
CC(=O)N1CCC[C@]12CC=CCCCC1(CCCC=CCCCCCC[C@@](C)(C(=O)N[C@@H](Cc3ccccc3)C(=O)N[C@@H](Cc3csc4ccccc34)C(=O)N[C@@H](CCC(N)=O)C(N)=O)NC(=O)[C@H](C(C)C)NC(=O)[C@H](Cc3ccccc3)NC(=O)[C@H](C)NC(=O)[C@H](C)NC(=O)[C@H](CC(=O)O)NC(=O)[C@H](CC(=O)O)NC1=O)NC(=O)[C@H](CCC(N)=O)NC(=O)[C@H](CC(=O)O)NC2=O (stereo partly drawn) [I-347, Ac-PL3-Asp-Gln-B5-Asp-Asp-Ala-Ala-Phe-Val-S8-Phe-BztA-Gln-NH2]	–	–	–	50 µM (≈ 92.8 µg/mL)	121 nM	–	1.956	–	121 nM
CC[C@@H](C)[C@@H](NC(=O)[C@H](CCC(N)=O)NC(=O)[C@H](Cc1csc2ccccc12)NC(=O)[C@H](Cc1ccccc1)NC(=O)[C@]1(C)CCCCCCC=CCCCC2(CCCC=CC[C@]3(CCCN3C(C)=O)C(=O)N[C@@H](CC(=O)O)C(=O)N[C@@H](CC(C)C)C(=O)N2)C(=O)N[C@@H](CC(=O)O)C(=O)N[C@@H](CCC(=O)O)C(=O)N[C@@H](C)C(=O)N[C@@H](C)C(=O)N[C@@H](Cc2ccccc2)C(=O)N[C@@H](CC(N)=O)C(=O)N1)C(N)=O (stereo partly drawn) [I-735, Ac-PL3-Asp-Leu-B5-Asp-Glu-Ala-Ala-Phe-Asn-S8-Phe-BztA-Gln-dIle-NH2]	–	246 nM	–	43 µM (≈ 85.2 µg/mL)	–	–	2.738	246 nM	–
CC(=O)N1CCC[C@]12CC=CCCCC1(CCCC=CCCCOC(=O)N3CC[C@@](C(=O)N[C@@H](Cc4ccc5ccccc5c4)C(=O)N[C@@H](Cc4csc5ccccc45)C(=O)N[C@@H](Cc4c[nH]cn4)C(N)=O)(C3)NC(=O)[C@H](CC(N)=O)NC(=O)[C@H](Cc3ccccc3)NC(=O)[C@H](C)NC(=O)[C@H](C)NC(=O)[C@H](CC(=O)O)NC(=O)[C@H](CC(=O)O)NC1=O)NC(=O)[C@H](CC(C)(C)C)NC(=O)[C@H](CC(=O)O)NC2=O (stereo partly drawn) [I-795, Ac-PL3-Asp-Npg-B5-Asp-Asp-Ala-Ala-Phe-Asn-PyrS2-2NapA-BztA-His-NH2]	–	–	2.39	10 µM (≈ 19.7 µg/mL)	–	176 nM	–	–	–
CC(=O)N1CCC[C@]12CC=CCCCC1(CCCC=CCCCOC(=O)N3CC[C@@](C(=O)N[C@@H](Cc4ccccc4Cl)C(=O)N[C@@H](Cc4csc5ccccc45)C(=O)N[C@@H](CCC(N)=O)C(=O)NCCCCCCN=[N+]=[N-])(C3)NC(=O)[C@H](Cc3ccccc3)NC(=O)[C@H](Cc3ccccc3)NC(=O)[C@H](C)NC(=O)[C@H](C)NC(=O)[C@H](CN(CC(=O)O)CC(F)(F)F)NC(=O)[C@H](CC(=O)O)NC1=O)NC(=O)[C@H](CC(C)(C)C)NC(=O)[C@H](CC(=O)O)NC2=O (stereo partly drawn) [I-1085, Ac-PL3-Asp-Npg-B5-Asp-TfeGA-Ala-Ala-Phe-Phe-PyrS2-2C1F-BztA-Gln-6AzHex]	–	–	3.7	10 µM (≈ 22.2 µg/mL)	390 nM	–	–	–	–
